Assay results as given in patent US8283481B2, “Inhibitors of a 9-cis epoxycarotenoid dioxygenase” (National Research Council of Canada, priority 2008, dated 2012).
pKi: −log10 of the molar value.

Experiments:
AtNCED3 = test: qRT-PCR transcript level in mannitol stressed plants: AtNCED3; type: in vivo, Arabidopsis thaliana; details: 10 and 33 μM, mannitol stress
Description: For each condition to be tested, three hundred wild-type Arabidopsis thaliana Col-0 seeds (LEHLE) were sterilized, vernalized and sewn onto 200 mL of Sunshine Mix #3 (Sun Gro) potting material in an 8×8×4 cm pot. Plants were watered continuously with 25 g/100 mL of 20-20-20 (PlantProdTM) fertilizer and grown at 22° C. with a 16 hour photoperiod for 22 days. Plants were pre-treated with 50 mL/pot of Buffer A (10 mM HEPES pH 6.5) (Sigma)+/-10 or 33 μM test compound for 2 hours. Plants were then soaked with 50 mL/pot of Buffer A containing 0.4 M mannitol (Sigma)+/-10 or 33 μM test compound. Non-treated/non-stressed control plants were simply soaked in Buffer A at the designated time points. Aerial plant tissue was harvested after 6, 12 and 48 hours from the time of initial inhibitor treatment and flash frozen in liquid nitrogen. Half of the tissue samples were lyophilized for metabolite profiling and the other half taken for quantitative reverse-transcription polymerase chain reaction (qRT-PCR) analysis. […] The resulting mRNA was quantified and checked for quality using a Nano-DropTM ND-1000 Spectrophotometer. QuantiTectTM Reverse Transcription Kit (Qiagen) was used to produce cDNA as directed by the manufacturer from 20 ng of starting mRNA. Quantitative PCR was performed on 1 μL of cDNA product using a Bio-Rad iCyclerTM and the QuantiTectTM SYBR Green PCR Kit (Qiagen) coupled with QuantiTectTM Primer Assays (Qiagen) for the gene targets; […]-112304), Rd29B (NM-124609), CYP707A1 (NM-118043), CYP707A3 (NM-123902) and UBQ10 (NM-178968). The pre-validated primer sets are as follows indicated by the GeneGlobe (www1.qiagen.com/GeneGlobe/default.aspx) product name and (catalogue number): At_NCED3-1_SG (QT00769573), At_RD29B-1_SG (QT00840399), At_CYP707A1-1_SG (QT00808339), At_CYP707A3-1_SG (QT00739242), At_UBQ10_va.1_SG (QT01123745). Relative changes in transcript level were normalized using UBQ10 and quantified as previously described.^41

CYP707A1 = test: qRT-PCR transcript level in mannitol stressed plants: CYP707A1; type: in vivo, Arabidopsis thaliana; details: 10 and 33 μM, 6 hours post-compound treatment, normalized to UBQ10
Description: (§1) For each condition to be tested, three hundred wild-type Arabidopsis thaliana Col-0 seeds (LEHLE) were sterilized, vernalized and sewn onto 200 mL of Sunshine Mix #3 (Sun Gro) potting material in an 8×8×4 cm pot. Plants were watered continuously with 25 g/100 mL of 20-20-20 (PlantProdTM) fertilizer and grown at 22° C. with a 16 hour photoperiod for 22 days. Plants were pre-treated with 50 mL/pot of Buffer A (10 mM HEPES pH 6.5) (Sigma)+/-10 or 33 μM test compound for 2 hours. Plants were then soaked with 50 mL/pot of Buffer A containing 0.4 M mannitol (Sigma)+/-10 or 33 μM test compound. Non-treated/non-stressed control plants were simply soaked in Buffer A at the designated time points. Aerial plant tissue was harvested after 6, 12 and 48 hours from the time of initial inhibitor treatment and flash frozen in liquid nitrogen. Half of the tissue samples were lyophilized for metabolite profiling and the other half taken for quantitative reverse-transcription polymerase chain reaction (qRT-PCR) analysis. […] The resulting mRNA was quantified and checked for quality using a Nano-DropTM ND-1000 Spectrophotometer. QuantiTectTM Reverse Transcription Kit (Qiagen) was used to produce cDNA as directed by the manufacturer from 20 ng of starting mRNA. […] Relative changes in transcript level were normalized using UBQ10 and quantified as previously described.^41

CYP707A3 = test: qRT-PCR transcript level in mannitol stressed plants: CYP707A3; type: in vivo, Arabidopsis thaliana; details: 10 and 33 μM, 6 hours post-compound treatment, normalized to UBQ10
Description: as §1

Rd29B = test: qRT-PCR transcript level in mannitol stressed plants: Rd29B; type: in vivo, Arabidopsis thaliana; details: 10 and 33 μM, 6 hours post-compound treatment, normalized to UBQ10
Description: as §1

recombinant AtNCED3 = biological target: T1, recombinant AtNCED3 (Arabidopsis thaliana, UniProt Q9LRR7); test: Recombinant AtNCED3 in vitro enzyme assay (HPLC, cleavage of 9-cis-neoxanthin); type: biochemical; details: for pKi: Dixon plot, competitive inhibition, 0-250 μM inhibitor, 9-cis-neoxanthin at 50 (55), 30 and 10 μM; for relative inhibition of AtNCED3 activity (in words): in vitro enzyme assay, 1 mM concentration (FIG. 5)
T1 construct: glutathione-S-transferase (GST) (C); made in house; host or cells: E. coli BL21(DE3), pRL296 vector
T1 sequence (Q9LRR7 41-599): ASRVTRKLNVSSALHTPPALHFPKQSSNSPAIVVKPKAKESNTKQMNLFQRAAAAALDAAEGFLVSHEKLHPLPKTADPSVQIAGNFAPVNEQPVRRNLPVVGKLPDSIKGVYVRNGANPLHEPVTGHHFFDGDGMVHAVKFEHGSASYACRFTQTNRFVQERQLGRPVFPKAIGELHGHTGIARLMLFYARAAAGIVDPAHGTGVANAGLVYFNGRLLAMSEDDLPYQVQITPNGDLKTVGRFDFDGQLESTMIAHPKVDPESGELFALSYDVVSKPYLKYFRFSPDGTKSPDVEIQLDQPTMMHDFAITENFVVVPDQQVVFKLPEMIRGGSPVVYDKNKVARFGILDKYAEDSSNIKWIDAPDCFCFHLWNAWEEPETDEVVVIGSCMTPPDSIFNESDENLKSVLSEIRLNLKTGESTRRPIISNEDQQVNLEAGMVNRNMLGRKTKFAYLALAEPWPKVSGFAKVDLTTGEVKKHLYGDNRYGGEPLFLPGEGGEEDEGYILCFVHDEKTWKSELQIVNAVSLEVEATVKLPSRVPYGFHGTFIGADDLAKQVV
Description: Fresh spinach was macerated under liquid nitrogen and extracted five times with three volumes of methanol/0.1% KOH. Samples were dried using a roto-evaporator, resuspended in acetone and then chilled on ice for one hour. The solvent was subsequently transferred to a new flask, roto-evaporated and resuspended in acetonitrile/acetone (1:1) mixture. The mixture was applied to a gravity flow column containing C-18 silica gel (Sigma) equilibrated in 65% acetonitrile/35% water (solvent C). The column was washed with 49% acetone (solvent D)/51% solvent A and 20 mL of 55% solvent D/45% solvent A while collecting 5 mL fractions. Fractions containing neoxanthin were pooled, dried, and resuspended in 100 μL of methanol. The pooled mixture was separated using an Agilent 1100 series HPLC and a Supelcosil™ LC-18 (25 cm×10 mm, 5 m) (Supelco) column equilibrated with solvent A. The HPLC method consisted of a linear gradient over 30 minutes from 100% solvent A to 100% solvent D with a flow rate of 4 mL/minute at 22° C. and monitored with a PDA detector at 436 nm. The neoxanthin fractions were collected, dried and resuspended in ethanol. Neoxanthin was quantified by determining its OD439 using a PerkinElmer Lambda 35 UV/VIS Spectrometer and applying its extinction coefficient of 2243 (A^1%1cm).^30
AtNCED3 was over-expressed using the pRL296 expression vector (a gift from M. Cygler, BRI, Montreal) in E. coli (BL21)DE3 cells as a glutathione-S-transferase fusion protein and affinity purified using glutathione sepharose 4 fast flow resin (GE Healthcare) as described previously.^35 Essentially, cells were grown to an OD600 of 0.45 at 37° C. and 200 rpm shaking. The culture was induced with 1 mM isopropyl-β-d-thiogalactoside for 16 h at 15° C. and 200 rpm shaking. The cells were pelleted and resuspended in 50 mM Tris-HCl (pH 8.0) 1 mM DTT and 0.5% protease inhibitor cocktail set III (CalBiochem). Cells were lysed using a french press at 20,000 psi and affinity purified as per manufacturer's instructions (GE Healthcare). Protein concentration was determined by the method of Bradford.^36
Enzymatic assays contained 100 mM Bis-Tris (pH 6.7), […], 10 mM ascorbate, 0.05% Triton™ X-100, catalase (1 mg/mL), neoxanthin and inhibitor to a total volume of 5 L of ethanol and 8 g AtNCED3 to a total assay volume of 100 L. Assays were incubated at 22° C. for 20 min. The assays were stopped with the addition of 50 L of 25% Triton™ X-100 and extracted with 150 L of ethyl acetate. All procedures were performed under red-light to minimize photo-induced damage to assay components and products.^6 Fine chemicals and solvents were purchased from Sigma-Aldrich. 75 μL of the assay extract was injected into an Agilent 1100 series HPLC machine equipped with a Supelcosil™ LC-18 (3.3 cm×4.6 mm, 3 m) (Supelco) column pre-equilibrated with 15% acetonitrile (solvent B)/85% water (solvent A). Solvent B increased to 35% over ten minutes, followed by a linear gradient of 65% solvent B to 100% solvent D over 10 minutes. Solvent D was maintained at 100% for 2 minutes and then the column was returned to 15% solvent B for 5 min. The flow rate was maintained at 1.5 mL/min. and monitored with a photodiode array (PDA) detector at 436 and 262 nm.
Evaluation of recombinant AtNCED3 kinetic parameters for Km was accomplished using Michaelis-Menten equation plotted with EnzFitter™ v2.0.18.0 (Biosoft). The Ki for inhibitors was determined using a Dixon plot and concentration ranges of 250, 200, 150, 100, 50 and 0 μM inhibitor in the presence of either 55, 30 or 10 μM 9-cis-neoxanthin 2.^5

CCSCC=C(C)C#CC1(O)C(C)CC(=O)CC1(C)C (racemic) [Compound 13, (4S,5R/4R,5S)-(3′Z)-4-(5′-(Ethylthio)-3′-methylpent-3′-en-1′-ynyl)-4-hydroxy-3,3,5-trimethylcyclohexanone] was tested, and the “relative expression level of AtNCED3 in mannitol stressed plants (in words)” value (shortened to “relative expression level of AtNCED3”) (AtNCED3) was “decrease the relative expression levels of AtNCED3”, the “CYP707A1 mRNA transcript level vs mannitol-stressed control (in words)” value (CYP707A1) was “reductions in the accumulation of mRNA transcript levels” and the “CYP707A3 mRNA transcript level vs mannitol-stressed control (in words)” value (CYP707A3) was “reductions in the accumulation of mRNA transcript levels”. For the same compound, the “inhibition of mannitol-induced Rd29b transcription” value (Rd29B) was “about 90%”, the inhibition at 1000 µM (recombinant AtNCED3; 1 mM compound) was 75% and the pKi (recombinant AtNCED3) was 4.03.

C/C(C#C[C@@]12O[C@]1(C)C[C@@H](O)CC2(C)C)=C/CSc1ccccc1 [Compound 17, (1R,3S,6R)-(3′Z)-1,5,5-Trimethyl-6-(3′-methyl-5′-(phenylthio)-pent-3′-en-1′-ynyl)-7-oxa-bicyclo[4.1.0]heptan-3-ol] was tested, and the “relative expression level of AtNCED3” value (AtNCED3) was “similar, although not as pronounced effects”, the pKi (recombinant AtNCED3) was 4.24 and the “relative inhibition of AtNCED3 activity (in words)” value (recombinant AtNCED3) was “completely inhibited”.

C/C(C#C[C@@]12O[C@]1(C)C[C@@H](O)CC2(C)C)=C/CNc1ccccc1 [Compound 18, (1R,3S,6R)-(3′Z)-1,5,5-Trimethyl-6-(3′-methyl-5′-(phenylamino)-pent-3′-en-1-ynyl)-7-oxabicyclo[4.1.0]heptan-3-ol] was tested, and the “relative expression level of AtNCED3” value (AtNCED3) was “similar, although not as pronounced effects”, the pKi (recombinant AtNCED3) was 4.06 and the “relative inhibition of AtNCED3 activity (in words)” value (recombinant AtNCED3) was “completely inhibited”.
